Reference: patent US20110256121A1, “METHODS AND KITS FOR DIAGNOSING OR MONITORING AUTOIMMUNE AND CHRONIC INFLAMMATORY DISEASES” (THE REGENTS OF THE UNIVERSITY OF MICHIGAN, priority 2008, published 2011)

Columns and labels:
T cell CD70 expression = test: CD70 expression on PHA-stimulated T cells by flow cytometry; assay type: cell-based, human; conditions: for CD70 expression on treated vs untreated PHA-stimulated T cells: unfractionated T cells, 3 days, dose-response for procainamide, PD98059, U0126
Procedure: Cells and cell culture. Peripheral blood mononuclear cells (PBMCs) were isolated by density-gradient centrifugation. T cells were then isolated by E-rosetting (See, e.g., Golbus et al., Clin Immunol Immunopathol 46, 129 (1988)). […] Where indicated, the cells were cultured in RPMI 1640/10% fetal calf serum (FCS) supplemented with interleukin-2 (IL-2) (See, e.g., Richardson et al., Clin Immunol Immunopathol 55, 368 (1990)), in round-bottomed 5-ml culture tubes (Falcon). Cells were stimulated with 1 μg/ml of PHA (Remel) for 16 hours, then cultured in 24-well plates at a density of 1×10^6 for an additional 72 hours in the presence of 2-deoxy-5-azaC or 5-azaC (Sigma-Aldrich), procainamide (Sigma-Aldrich), hydralazine (Sigma-Aldrich), or the MEK inhibitors U0126 (Promega) or PD98059 (Promega). In other studies, PHA-stimulated PBMCs were cultured in RPMI 1640/10% FCS and treated with indomethacin, chloroquine, hydrocortisone, and 6-mercaptopurine (6-MP) (all from Sigma-Aldrich). TT48E, a cloned, CD4+, tetanus toxoid-reactive human T cell line, was cultured as previously described (Cornacchia et al., J Immunol 140, 2197 (1988); Richardson et al., Arthritis Rheum 35, 647 (1992)).
Flow cytometric analysis. The following fluorochrome-conjugated monoclonal antibodies were obtained from BD PharMingen (San Diego, Calif.): FITC-conjugated anti-human CD70, CD2, or isotype-matched controls; phycoerythrin (PE)-conjugated anti-CD2, CD4, and CD8; and CyChromeconjugated anti-HLA-DR, CD2, and isotype controls. Staining and multicolor flow cytometric analysis were performed (See, e.g., Hale et al., Cell Immunol 220, 51 (2002)) using saturating concentrations of antibody.
The panel of inhibitors used included 5-azaC, an irreversible DNA methyltransferase inhibitor (See, e.g., Glover and Leyland-Jones, Cancer Treat Rep 71, 959 (1987)) procainamide, a competitive DNA methyltransferase inhibitor (See e.g., Scheinbart et al., J Rheumatol 18, 530 (1991)), and the ERK pathway inhibitors PD98059, U0126, and hydralazine.
Studies were performed examining the effects of the DNA methylation inhibitors on CD70 expression in CD4+ and CD8+ T cell subsets.

[1] = system: CD70-dependent B cell help; test: T cell and B cell costimulation assay with PWM, IgG ELISA; assay type: cell-based, human; conditions: 8 days, P<0.05
Procedure: T cell and B cell costimulation assays. E-rosette-purified T cells were stimulated for 16 hours with PHA and then treated with the indicated chemicals for an additional 72 hours as described above. Where indicated, T cell subsets were isolated by negative selection using magnetic beads (Miltenyi). B cells (1-4×10^5) enriched by negative selection using magnetic beads (Miltenyi) and assessed to be 70-85% pure using PE-conjugated anti-human CD21 (PharMingen), were added to washed, drug-treated autologous T cells, at T cell to B cell ratios of 4:1, 2:1, 1:1, 1:2, and 1:4. Where indicated, 0.625 μg/ml of PWM (Aldrich) was added. The cells were cultured in RPMI 1640/10% FBS/penicillin/streptomycin for 8 days in 96-well roundbottomed plates (Costar) containing a 200 μl total volume (performed in duplicate). Cells were supplemented with 50 μl of medium on day 4. […]
IgG enzyme-linked immunosorbent assays (ELISAs). […] Serial dilutions of purified human IgG (Sigma) were used for quantitation. […] The plates were read at 405 nm using a SpectraMax spectrophotometer (Molecular Devices). […]
Since CD70 participates in T cell-dependent B cell stimulation (See e.g., Kobata et al., Proc Natl Acad Sci USA 92, 11249 (1995)), the effects of DNA methylation inhibitors on CD70-dependent B cell help were examined. […] Eight days later, total IgG in the supernatants was measured by ELISA. […]

CD70 mRNA = conditions: treated vs untreated T cells, real time RT-PCR

SMILES: Nc1ncn([C@@H]2O[C@H](CO)[C@@H](O)[C@H]2O)c(=O)n1 [5-azaC, 5-azacytidine]
- increase of CD70 MFI on CD4+ T cells (T cell CD70 expression; 1 μM 5-azaC, n=5, P=0.025): 1.53±0.45 fold
- CD70 expression on CD4+ T cells (T cell CD70 expression): increased CD70 expression on CD4+ T cells
- 5-azaC concentration producing the greatest effect on CD70 expression (T cell CD70 expression; range of 5-azaC concentrations, n=5): 1 µM
- CD70 expression on treated vs untreated PHA-stimulated T cells (T cell CD70 expression; 1 μM 5-azaC): small increase
- IgG secreted by B cells cultured with drug-treated T cells vs untreated T cells [1]: secreted greater amounts of IgG
- CD70 mRNA relative to beta-actin (CD70 mRNA): increased the expression of CD70 mRNA

SMILES: N#CC(=C(/N)Sc1ccccc1N)/C(C#N)=C(\N)Sc1ccccc1N [U0126]
- increase of CD70 MFI on CD4+ T cells (T cell CD70 expression; 40 μM U0126, n=4, P=0.039): 3.20±0.44 fold
- CD70 expression on CD4+ T cells (T cell CD70 expression): increased CD70 expression on CD4+ T cells
- increase of CD70 MFI in T cells treated with U0126 (FIG. 2I) (T cell CD70 expression; U0126, P=0.085, stated in the CD8+ context): 2.83±0.95 fold
- CD70 expression on treated vs untreated PHA-stimulated T cells (T cell CD70 expression; 1 μM 5-azaC): increase in CD70 expression with treatment
- IgG secreted by B cells cultured with drug-treated T cells vs untreated T cells [1]: secreted greater amounts of IgG
- CD70 mRNA relative to beta-actin (CD70 mRNA): increased the expression of CD70 mRNA
